Reference: ChEMBL document CHEMBL6120970, “Discovery and Functional Characterization of a Potent, Selective, and Metabolically Stable PROTAC of the Protein Kinases DYRK1A and DYRK1B” (J Med Chem, 2024)
Calls of active or inactive are those of the source. The calls are words filed in the database; no cut-off is given here.

Columns and labels:
[1] = molecular target: T1, Protein cereblon/Dual specificity tyrosine-phosphorylation-regulated kinase 1A (Homo sapiens, UniProt Q13627+Q96SW2); assay: PROTAC activity at CRBN/DYRK1A in human SH-SY5Y cells assessed as induction of degradation of DYRK1A at 100 nM incubated for 8 hrs relative to control; assay type: cell-based
Target sequence in this assay (Q96SW2 whole entry, looked up, other chains not shown): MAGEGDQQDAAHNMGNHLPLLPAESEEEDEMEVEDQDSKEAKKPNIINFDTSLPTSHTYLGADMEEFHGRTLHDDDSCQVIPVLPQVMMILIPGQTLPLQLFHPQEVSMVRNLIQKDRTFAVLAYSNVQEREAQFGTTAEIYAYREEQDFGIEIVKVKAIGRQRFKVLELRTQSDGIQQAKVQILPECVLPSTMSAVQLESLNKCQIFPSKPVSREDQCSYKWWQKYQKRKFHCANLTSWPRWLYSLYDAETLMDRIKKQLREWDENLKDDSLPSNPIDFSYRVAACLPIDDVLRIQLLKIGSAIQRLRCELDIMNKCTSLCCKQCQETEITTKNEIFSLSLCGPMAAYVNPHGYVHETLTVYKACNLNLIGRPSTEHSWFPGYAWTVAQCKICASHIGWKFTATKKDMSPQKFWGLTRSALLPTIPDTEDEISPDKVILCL

[2] = molecular target: T1, Protein cereblon/Dual specificity tyrosine-phosphorylation-regulated kinase 1A; assay: PROTAC activity at CRBN/DYRK1A in HEK293 cells assessed as induction of degradation of DYRK1A at 100 nM incubated for 24 hrs; assay type: cell-based
Target sequence in this assay (Q96SW2 whole entry, looked up, other chains not shown): as above

[3] = molecular target: T1, Protein cereblon/Dual specificity tyrosine-phosphorylation-regulated kinase 1A; assay: PROTAC activity at CRBN/DYRK1A in HEK293 cells assessed as induction of degradation of DYRK1A at 100 nM pretreated with MLN4924 followed by compound addition and incubated for 8 hrs; assay type: cell-based
Target sequence in this assay (Q96SW2 whole entry, looked up, other chains not shown): as above

[4] = AUC last in mouse at 10 mg/kg, po administered as single dose; assay type: ADME, organism-based; conditions: in vivo
[5] = molecular target: T1, Protein cereblon/Dual specificity tyrosine-phosphorylation-regulated kinase 1A; assay: PROTAC activity at CRBN/DYRK1A in human HeLa cells assessed as induction of degradation of DYRK1A at 100 nM incubated for 8 hrs; assay type: cell-based
Target sequence in this assay (Q96SW2 whole entry, looked up, other chains not shown): as above

[6] = molecular target: T1, Protein cereblon/Dual specificity tyrosine-phosphorylation-regulated kinase 1A; assay: PROTAC activity at CRBN/DYRK1A in HEK293 cells assessed as induction of degradation of DYRK1A incubated for 24 hrs; assay type: cell-based
Target sequence in this assay (Q96SW2 whole entry, other chains not shown): as the sequence (Q96SW2 whole entry, looked up, other chains not shown) above

[7] = Clearance in mouse at 1 mg/kg, iv administered as single dose; assay type: ADME, organism-based; conditions: in vivo
[8] = molecular target: T1, Protein cereblon/Dual specificity tyrosine-phosphorylation-regulated kinase 1A; assay: PROTAC activity at CRBN/DYRK1A in human A549 cells assessed as induction of degradation of DYRK1A at 100 nM incubated for 24 hrs; assay type: cell-based
Target sequence in this assay (Q96SW2 whole entry, looked up, other chains not shown): as above

[9] = molecular target: T1, Protein cereblon/Dual specificity tyrosine-phosphorylation-regulated kinase 1A; assay: PROTAC activity at CRBN/DYRK1A in Flp-In-T-REx-293 cells overexpressing GFP-DYRK1A assessed as maximal reduction of GFP fluorescence at 1 uM measured upto 6 hrs by fluorescence based phase contrast microscopy analysis relative to control; assay type: cell-based
Target sequence in this assay (Q96SW2 whole entry, looked up, other chains not shown): as above

In the case of Cc1nc2ccc(-c3ccnc(N)c3)nc2n1-c1ccc(N2CCN(CC#Cc3ccc(N4CCC(C(=O)N5CCC(n6cc(CNc7cccc8c7C(=O)N(C7CCC(=O)NC7=O)C8=O)cn6)CC5)CC4)nc3)CC2)c(F)c1 (centres undefined), the Activity [1] is reported as 100%, the Activity [2] is reported as “Active” and the Activity [3] is reported as “inactive”. For the same compound, the AUC(0-t) [4] was 56 ng·h/mL, the Activity [5] was “inactive” and the DC50 [6] was 0.0123 µM. The clearance [7] was 7.1 mL/min/kg, the Activity [8] was “Active” and the Emax [9] was 98%.
